Data as given in PMC6281413, “Inhibition of breast cancer metastasis to the lungs with UBS109” (Oncotarget, 2018).
Several values for one entry are separate records, joined by “and”; a condition that tells them apart may be missing. Identical values can stand only once. Entries after “also recorded” stand apart in the source; their conditions may differ. Like-named read-outs stand apart in the source and are kept apart here.

Key:
[1] = tested on: human pancreatic cancer cells MiaPaca-2, ASPC-1, PT45P1 and PT45P1/asTF+; set-up: method as in doi:10.14319/ijcto.32.19; details: cited from earlier work; for ranking of the cytotoxic activities: four human pancreatic cancer cell lines
[2] = tested on: NCI-60 cancer cell line panel; set-up: method as in PMID 15210154, PMID 15711178, PMID 16722634; details: mean, read-out: mean growth inhibitory concentration GI50; cited from earlier work
[3] = pharmacokinetic study, single i.p. dose, plasma by LC/MS/MS; type: in vivo, CD-1 mice; details: 15 mg/kg i.p.
Protocol: Pharmacokinetic analysis of the plasma concentration time curve for each animal was conducted using noncompartmental analysis with WinNonlin® Version 6.3.0 (Figure 5). […] This is approximately […] in the blood of mice and, given the molecular weight of UBS109 of 291.4, yields a blood concentration of approximately 1.5 μM.
A pharmacokinetic (PK) study was performed by Agilux Laboratories Inc./Charles River laboratories, Inc. (Worcester, MA, USA). Male CD-1 mice (Harlan Laboratories, Inc.) weighing 28 ± 1.6 grams were used for the PK study. Three mice were administered a single i.p. dose of UBS109 15 mg/kg in 10% DMSO and 90% PBS.
A blood sample (approximately 35–40 μL) was taken from each animal from the tail vein at 4 different time points after dosing: 0.25, 0.5, 2, and 8 h (n=3 mice/time point). Samples were collected into K2EDTA-coated Microvette tubes (Sarstedt) on wet ice (protected from light) and processed to plasma by centrifugation (3500 rpm at 5°C) within 1 hour of collection. All plasma samples were transferred into separate 96 well plates (matrix tubes) and stored at −80°C until analysis for the parent drug by Agilux Laboratories/Charles River laboratories, Inc. via LC/MS/MS.
The plasma samples (10 μL) were deproteinated with acetonitrile (80 μL) and analyzed by LC/MS/MS using an internal standard (carbutamide) spiking technique with an AB SCIEX 6500+ system equipped with a Waters Acuity BEH C18 UPLC column (2 × 50 mm, 1.7 μm) operating at 55°C with mobile phases A (95:5:0.1 H2O:CAN:FA) and B (50:50:0.1 CAN:MeOH:FA). The corresponding time courses were 1.40 and 2.10 min (%MPB 95; Flow 0.800 mL/min) followed by a 2.80 min Strong Needle Rinse (25:25:25:25:0.1 (v:v:v:v:v) MeOH:ACN:IPA:H2O:NH4OH). The verified research grade bioanalytical assay method to determine the plasma concentrations of UBS109 (RGA Level 1) employed an API 6500+ electrospray, positive ion MS/MS device. The mean, standard deviation, and %CV of plasma levels were determined using Microsoft® Office Excel 2007. Mean concentration data was plotted against time to create plasma concentration versus time profiles at each dosage (Table 2 and Figure 5).
Pharmacokinetic analysis of the plasma concentration time curve for each animal was conducted using noncompartmental analysis with WinNonlin® Version 6.3.0. Areas under the curve (AUC) were estimated using the linear trapezoidal rule. The first order rate constant (Lambda Z) associated with the terminal (log-linear) elimination phase was estimated using linear regression of at least three nonzero concentrations versus time points in the late phase of the log concentration versus time profile. The half-life (t.) was calculated as ln(2)/Lambda Z. Nominal times were used in all the data analyses.

[4] = tested on: MDA-MB-231 breast cancer cells; set-up: method as in PMID 24628271; details: at 1.25 μM, in vitro; cited from earlier work
[5] = tested on: MDA-MB-231 xenografts in the lungs; assay: breast cancer lung metastasis (colonization) model, MDA-MB-231 cells injected into the tail vein; type: in vivo, athymic nude mice; details: for Lung weight (breast tumor nodules): n=4, ± S.D., vehicle control 296.6 ± 18.8
Protocol: The effect of UBS109 administration on lung metastasis was examined in mice bearing MDA-MB-231 xenografts in the lungs. Animals were administered therapeutic regimens of UBS109 by i.p. once/day 5 days/week (M-F) for 5 weeks, in the following groups: control vehicle, UBS109 at 5 mg/kg in vehicle, and UBS109 15 mg/kg in vehicle (n = 4). […] The cancer cells were mainly found in the lungs and some other sites. […] Treatment with UBS109 15 mg/kg appears the most efficacious in inhibiting tumors (lung colonies) (Figures 2 and 3). […] Lung weight was used to assess the breast cancer colony load present in the lungs of each mouse, since it is difficult to accurately count all colonies outside and inside in each lung.
Female athymic nude mice (nu/nu, Harlan Sprague-Dawley strain; 5-6 weeks old) were housed in a pathogen-free facility. All procedures and protocols were approved by the Institutional Animal Care and Use Committee at Emory University. Mice were randomized into […]: normal group (no tumor cells injected), lung metastasis model group (vehicle control), and two UBS109-treated groups with different dosages, 5 and 15 mg/kg body weight, 4 mice in each group.
Athymic nude mice were housed in a pathogen-free facility and were intravenously injected into the tail vein with breast cancer MDA-MB-231 bone metastatic cells (10^6 cells/mouse) to result in lung metastasis (colonization). One week following injection, mice were randomized to receive either vehicle (0.5% carboxymethyl cellulose sodium [CMC] with 10% DMSO in sterile water) or drug (UBS109). The agents (vehicle, UBS109 at 5 or 15 mg/kg body weight) were administered intraperitoneally (i.p.) daily 5 days per week for 5 weeks (n = 4 mice/regimen). CMC was dissolved in distilled water and sterilized by autoclaving. Due to chemical instability, a stock solution of the drugs was made fresh each time, by weighing out 100 mg UBS109 and dissolving it in 1 mL of 100% DMSO by briefly heating before making the appropriate dilution. […] Body weights were measured once a week.

[6] = body weight / toxicity during treatment in the lung metastasis model; type: in vivo, athymic nude mice
Protocol: Athymic nude mice were housed in a pathogen-free facility and were intravenously injected into the tail vein with breast cancer MDA-MB-231 bone metastatic cells (10^6 cells/mouse) to result in lung metastasis (colonization). One week following injection, mice were randomized to receive either vehicle (0.5% carboxymethyl cellulose sodium [CMC] with 10% DMSO in sterile water) or drug (UBS109). The agents (vehicle, UBS109 at 5 or 15 mg/kg body weight) were administered intraperitoneally (i.p.) daily 5 days per week for 5 weeks (n = 4 mice/regimen). CMC was dissolved in distilled water and sterilized by autoclaving. Due to chemical instability, a stock solution of the drugs was made fresh each time, by weighing out 100 mg UBS109 and dissolving it in 1 mL of 100% DMSO by briefly heating before making the appropriate dilution. After UBS109 administration for 5 weeks, animals were sacrificed. The lungs containing breast cancer tumors were weighed and fixed in 10% neutralized formalin for 48 h. Paraffin embedded blocks were stained with hematoxylin and eosin (H&E). Body weights were measured once a week.

[7] = set-up: method as in PMID 24628271, PMID 23933177, doi:10.14319/ijcto.32.19; details: cited from earlier work

O=C1/C(=C/c2ccccc2F)CNC/C1=C\c1ccccc1F [EF24, 3,5-bis(2-flurobenzylidene)piperidin-4-one]
ranking of the cytotoxic activities [1]: UBS109> EF24> HSP90 inhibitor> gemcitabine> Akt inhibitor> p38 MAPK inhibitor
GI50 [2]: 0.7 µM

CC(C)c1cc(-c2n[nH]c(=O)n2-c2ccc3c(ccn3C)c2)c(O)cc1O [HSP90 inhibitor]
ranking of the cytotoxic activities [1]: UBS109> EF24> HSP90 inhibitor> gemcitabine> Akt inhibitor> p38 MAPK inhibitor

N.N.[Cl][Pt][Cl] [cisplatin]
GI50 [2]: 9.5 µM

diferuloylmethane [curcumin]
GI50 [2]: 7.3 µM

NC1(c2ccc(-c3nc4ccn5c(=O)[nH]nc5c4cc3-c3ccccc3)cc2)CCC1 [Akt inhibitor]
ranking of the cytotoxic activities [1]: UBS109> EF24> HSP90 inhibitor> gemcitabine> Akt inhibitor> p38 MAPK inhibitor

Nc1ccn([C@@H]2O[C@H](CO)[C@@H](O)C2(F)F)c(=O)n1 [gemcitabine]
ranking of the cytotoxic activities [1]: UBS109> EF24> HSP90 inhibitor> gemcitabine> Akt inhibitor> p38 MAPK inhibitor
maximal killing of pancreatic cancer cells ([1]; up to 20 μM used in the test): above 50%

CN1CC(=Cc2ccccn2)C(=O)C(=Cc2ccccn2)C1 [UBS109, 3,5-bis(2-pyridinylmethylidene)-1-methyl-4-piperidone]
AUClast ([3]; individual mouse): 813 ng·h/mL and 116 ng·h/mL and 1061 ng·h/mL
Cmax ([3]; individual mouse): 398 ng/mL and 623 ng/mL and 835 ng/mL
Extrapolated (AUC) ([3]; individual mouse): 6.15%
Extrapolated (AUC) ([3]; mean (only mouse 2 reported)): 6.15%
T ½ ([3]; mean of mice (only mouse 2 reported)): 1.97 h
approximate concentration in the blood of mice ([3]; restated from Cmax): approximately 1.5 ng/ml
Cmax ([3]; male, CD-1, mouse, plasma, ip, 15 mg/kg, at 15 min post injection, read-out: maximal blood concentration (Cmax)): 432 ± 387 ng/mL
AUC(0-t) ([3]; male, CD-1, mouse, plasma, ip, 15 mg/kg, mean of 3 mice): 664 ng·h/mL
Cmax ([3]; male, CD-1, mouse, plasma, ip, 15 mg/kg, mean of 3 mice, read-out: Cmax): 619 ng/mL
Tmax ([3]; male, CD-1, mouse, plasma, ip, read-out: time of maximal blood concentration post injection (converted)): 0.25 h
AUC(0-inf) ([3]; male, CD-1, plasma, ip, individual mouse): 124 ng·h/mL
half-life ([3]; male, CD-1, plasma, ip, individual mouse, read-out: T ½ (converted)): 1.97 h
cell killing of MDA-MB-231 cells [4]: 100%
inhibition of all four pancreatic cancer cell lines ([1]; at 0.25 μM): 100%
ranking of the cytotoxic activities [1]: UBS109> EF24> HSP90 inhibitor> gemcitabine> Akt inhibitor> p38 MAPK inhibitor
effect on lung metastasis/colonization (tumor deposition in the lungs by weight) ([5]; 15 mg/kg i.p. once daily 5 days/week for 5 weeks): significantly reduced; also recorded: significantly inhibited; also recorded: inhibited lung metastases
Lung weight (breast tumor nodules) ([5]; UBS109 5 mg/kg i.p. once daily 5 days/week for 5 weeks): 285.9 ± 11.2 mg
Lung weight (breast tumor nodules) ([5]; UBS109 15 mg/kg i.p. once daily 5 days/week for 5 weeks, p<0.05 vs control): 226.6 ± 19.8 mg
toxicity judged from body weight ([6]; 5 or 15 mg/kg body weight i.p. once daily 5 days a week for 5 weeks): not toxic
body weight during treatment ([6]; 5 or 15 mg/kg i.p. once daily 5 days/week for 5 weeks, versus controls): did not lose weight; also recorded: remained the same as in the other groups
water solubility relative to other MACs [7]: most water soluble among the MACs
